The record followed here is patent US10874743B2, “IRAK degraders and uses thereof” (Kymera Therapeutics, Inc., priority 2017, dated 2020).

The test deals with T1, IRAK4 (Homo sapiens, UniProt Q9NWZ3).
T1 sequence (Q9NWZ3 1-460): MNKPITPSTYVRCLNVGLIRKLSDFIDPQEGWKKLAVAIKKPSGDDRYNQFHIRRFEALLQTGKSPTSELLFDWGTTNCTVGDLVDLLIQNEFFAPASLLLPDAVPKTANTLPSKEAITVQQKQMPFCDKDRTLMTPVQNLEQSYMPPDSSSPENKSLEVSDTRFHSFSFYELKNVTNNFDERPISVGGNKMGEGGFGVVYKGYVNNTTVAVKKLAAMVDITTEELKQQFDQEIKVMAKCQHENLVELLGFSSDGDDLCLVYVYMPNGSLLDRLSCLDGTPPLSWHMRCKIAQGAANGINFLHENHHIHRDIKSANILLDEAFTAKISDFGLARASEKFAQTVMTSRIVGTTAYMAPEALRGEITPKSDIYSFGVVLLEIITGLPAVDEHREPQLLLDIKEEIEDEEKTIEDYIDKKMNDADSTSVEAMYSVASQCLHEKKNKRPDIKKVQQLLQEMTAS
Briefly: OCI-LY-10 degradation assay (western blot, % IRAK4 degraded after 4 hours). The arrangement: endogenous in cells; host or cells: OCI-LY10. It counts as cell-based. The conditions noted are these: OCI-LY10 cells; for OCI-LY10 % IRAK4 Degradation (0.01 uM) / OCI-LY10 % IRAK4 Degradation (0.1 uM) / OCI-LY10 % IRAK4 Degradation (1 uM): 4 hours; for OCI-LY10 % IRAK4 Degradation (0.01 uM): 0.01 uM compound; for OCI-LY10 % IRAK4 Degradation (0.1 uM): 0.1 uM compound; for OCI-LY10 % IRAK4 Degradation (1 uM): 1 uM compound; for OCI-LY10 % IRAK4 Degradation: IRAK4 degraded after 4 hours, western blot. The essentials: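 OCI-LY10 cells (RPMI-1640, 20% FBS, 55 μM 2-ME) treated with compound at 0.003-10 μM final for 4 h at 37° C, then lysed in RIPA buffer. IRAK4 level read by fluorescent western blot (20-25 μg protein) and binned as % degraded: A >50%, B >20-50%, C <20%.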
For orientation: Immunoblotting shows a protein as a band on a membrane.

Take `O=C1CCC(N2C(=O)c3cccc(NCCNCCOCCNC(=O)c4ccc(-n5cc(NC(=O)c6coc(-c7ccnc(NCC8CC8)c7)n6)c(C(F)(F)F)n5)cc4)c3C2=O)C(=O)N1` (centres unmarked) [I-222]: the “OCI-LY10 % IRAK4 Degradation (0.01 uM)” value was “A (>50% degradation)”, the “OCI-LY10 % IRAK4 Degradation (0.1 uM)” value is “A (>50% degradation)” and the “OCI-LY10 % IRAK4 Degradation (1 uM)” value is “A (>50% degradation)”.
Consider `CN(CCOCCOCCNc1cccc2c1C(=O)N(C1CCC(=O)NC1=O)C2=O)C(=O)[C@H]1C[C@H](NC(=O)c2cnc(-n3ncc4cc(C#N)cnc43)cc2NC2CC2)C1` (some centres unmarked) [I-37], for which the “OCI-LY10 % IRAK4 Degradation” value was “C (<20% degradation)”.
Still for that read-out and setting: for `CC[C@@H]1[C@H](F)C(=O)N[C@@H]1COc1nccc2cc(C(=O)NCCOCCOCCNc3cccc4c3C(=O)N(C3CCC(=O)NC3=O)C4=O)c(OC)cc12` (some centres unmarked) [I-87] the value was “C (<20% degradation)”; for `CC(OCCOCCOCCNc1cccc2c1C(=O)N(C1CCC(=O)NC1=O)C2=O)C(F)CNC(=O)c1cnc(Nc2ccc3cnccc3n2)cc1NC1CC1` (centres unmarked) [I-62], “C (<20% degradation)”.
With `O=C1CCC(N2C(=O)c3cccc(NCCOCCN4CCO[C@@H](CNC(=O)c5ccc(-n6cc(NC(=O)c7coc(-c8ccnc(NCC9CC9)c8)n7)c(C(F)F)n6)cc5)C4)c3C2=O)C(=O)N1` (some centres unmarked) [I-247], the “OCI-LY10 % IRAK4 Degradation (0.01 uM)” value is recorded as “B (>20-50% degradation)”, the “OCI-LY10 % IRAK4 Degradation (0.1 uM)” value was “A (>50% degradation)” and the “OCI-LY10 % IRAK4 Degradation (1 uM)” value is “A (>50% degradation)”.
With `Cc1ncsc1-c1ccc(CNC(=O)[C@@H]2C[C@@H](O)CN2C(=O)[C@@H](NC(=O)COCCOCCOCCOCCOCCN2CCC(Nc3cccc(-c4cnc5ccc(C#N)cn45)n3)C2)C(C)(C)C)cc1` (some centres unmarked) [I-209], the “OCI-LY10 % IRAK4 Degradation” value is “C (<20% degradation)”.
On to `O=C1CCC(N2C(=O)c3ccc(NCCOCCOCCNCc4ccc(-n5cc(NC(=O)c6coc(-c7ccnc(NCC8CC8)c7)n6)c(C(F)F)n5)cc4)cc3C2=O)C(=O)N1` (centres unmarked) [I-354], for which the “OCI-LY10 % IRAK4 Degradation (0.01 uM)” value is recorded as “C (<20% degradation)”, the “OCI-LY10 % IRAK4 Degradation (0.1 uM)” value is given as “A (>50% degradation)” and the “OCI-LY10 % IRAK4 Degradation (1 uM)” value was “A (>50% degradation)”.
In the case of `N#Cc1cnc2c(cnn2-c2cc(NC3CC3)c(-c3cn(CCOCCOCCOCCOCCOCCNc4cccc5c4C(=O)N(C4CCC(=O)NC4=O)C5=O)nn3)cn2)c1` (centres unmarked) [I-176, 1-[4-(Cyclopropylamino)-5-[1-[2-[2-[2-[2-[2-[2-[[2-(2,6-dioxo-3-piperidyl)-1,3-dioxo-isoindolin-4-yl]amino]ethoxy]ethoxy]ethoxy]ethoxy]ethoxy]ethyl]triazol-4-yl]-2-pyridyl]pyrazolo[3,4-b]pyridine-5-carbonitrile], the “OCI-LY10 % IRAK4 Degradation” value was “C (<20% degradation)”.
Take `O=C1CCC(N2C(=O)c3cccc(NCCOCCOCCOC[C@H]4C[C@H](NC(=O)c5cnc(Nc6ccc7cnccc7n6)cc5NC5CC5)C4)c3C2=O)C(=O)N1` (some centres unmarked) [I-31]: the “OCI-LY10 % IRAK4 Degradation” value is listed as “C (<20% degradation)”.
As to `CC(C)(OCCOCCNc1cccc2c1C(=O)N(C1CCC(=O)NC1=O)C2=O)C(F)CNC(=O)c1cnc(Nc2ccc3cnccc3n2)cc1NC1CC1` (centres unmarked) [I-80], the “OCI-LY10 % IRAK4 Degradation” value is on record as “C (<20% degradation)”.
For the compound `NC(=O)c1nn(CCCCCCOCCOCCNc2cccc3c2C(=O)N(C2CCC(=O)NC2=O)C3=O)cc1NC(=O)c1coc(-c2ccnc(NCC3CC3)c2)n1` (centres unmarked) [I-435, N-[3-carbamoyl-1-[6-[2-[2-[[2-(2,6-dioxo-3-piperidyl)-1,3-dioxo-isoindolin-4-yl]amino]ethoxy]ethoxy]hexyl]pyrazol-4-yl]-2-[2-(cyclopropylmethylamino)-4-pyridyl]oxazole-4-carboxamide], the “OCI-LY10 % IRAK4 Degradation (0.01 uM)” value is “C (<20% degradation)”, the “OCI-LY10 % IRAK4 Degradation (0.1 uM)” value is “C (<20% degradation)” and the “OCI-LY10 % IRAK4 Degradation (1 uM)” value is “C (<20% degradation)”.
`N#Cc1ccc2ncc(-c3cccc(NC4CCN(CCOCCOCCOCCOCCOCCNc5cccc6c5C(=O)N(C5CCC(=O)NC5=O)C6=O)C4)n3)n2c1` (centres unmarked) [I-208]: the “OCI-LY10 % IRAK4 Degradation” value was “C (<20% degradation)”.
Consider `O=C1CCC(N2C(=O)c3ccc(N4CCN(CCOCCOCCNCc5ccc(-n6cc(NC(=O)c7coc(-c8ccnc(NCC9CC9)c8)n7)c(C(F)F)n6)cc5)CC4)cc3C2=O)C(=O)N1` (centres unmarked) [I-337], for which the “OCI-LY10 % IRAK4 Degradation (0.01 uM)” value was “C (<20% degradation)”, the “OCI-LY10 % IRAK4 Degradation (0.1 uM)” value is “A (>50% degradation)” and the “OCI-LY10 % IRAK4 Degradation (1 uM)” value is on record as “A (>50% degradation)”.
For `N#Cc1cnc2c(cnn2-c2cc(NC3CC3)c(C(=O)N[C@H]3CC[C@H](C(=O)NCCOCCNCCOCCOCCNc4cccc5c4C(=O)N(C4CCC(=O)NC4=O)C5=O)CC3)cn2)c1` (stereo partly drawn) [I-45, 6-(5-cyano-1H-pyrazolo[3,4-b]pyridin-1-yl)-4-(cyclopropylamino)-N-((1R,4R)-4-((14-((2-(2,6-dioxopiperidin-3-yl)-1,3-dioxoisoindolin-4-yl)amino)-3,9,12-trioxa-6-azatetradecyl)carbamoyl)cyclohexyl)nicotinamide], the “OCI-LY10 % IRAK4 Degradation” value is on record as “C (<20% degradation)”.
For `CN(CCOCCOCCCc1ccc2c(c1)C(=O)N(C1CCC(=O)NC1=O)C2=O)Cc1ccc(-n2cc(NC(=O)c3coc(-c4ccnc(NCC5CC5)c4)n3)c(C(F)F)n2)cc1` (centres unmarked) [I-310], the “OCI-LY10 % IRAK4 Degradation (0.01 uM)” value is reported as “C (<20% degradation)”, the “OCI-LY10 % IRAK4 Degradation (0.1 uM)” value is “A (>50% degradation)” and the “OCI-LY10 % IRAK4 Degradation (1 uM)” value is reported as “A (>50% degradation)”.
In the case of `O=C1CCC(N2C(=O)c3cccc(NCCOCC(F)CNC(=O)c4cnc(Nc5ccc6cnccc6n5)cc4NC4CC4)c3C2=O)C(=O)N1` (centres unmarked) [I-81], the “OCI-LY10 % IRAK4 Degradation” value is “C (<20% degradation)”.
For `NC(=O)c1nn(-c2ccc(CNCCCc3ccc4c(c3)C(=O)N(C3CCC(=O)NC3=O)C4=O)cc2)cc1NC(=O)c1coc(-c2ccncc2)n1` (centres unmarked) [I-372], the “OCI-LY10 % IRAK4 Degradation (0.01 uM)” value is “C (<20% degradation)”, the “OCI-LY10 % IRAK4 Degradation (0.1 uM)” value was “C (<20% degradation)” and the “OCI-LY10 % IRAK4 Degradation (1 uM)” value was “C (<20% degradation)”.
Consider `NC(=O)c1nn(-c2ccc(C(=O)NCCOCCOCCOCCOCC#Cc3cccc4c3C(=O)N(C3CCC(=O)NC3=O)C4=O)cc2)cc1NC(=O)c1coc(-c2ccnc(NCC(F)(F)F)c2)n1` (centres unmarked) [I-236], for which the “OCI-LY10 % IRAK4 Degradation (0.01 uM)” value is “C (<20% degradation)”, the “OCI-LY10 % IRAK4 Degradation (0.1 uM)” value was “B (>20-50% degradation)” and the “OCI-LY10 % IRAK4 Degradation (1 uM)” value is listed as “A (>50% degradation)”.
For the compound `CN(CCOCCOCCCc1ccc2c(c1)C(=O)N(C1CCC(=O)NC1=O)C2=O)Cc1ccc(-n2cc(NC(=O)c3coc(-c4ccncc4)n3)c(C(N)=O)n2)cc1` (centres unmarked) [I-309], the “OCI-LY10 % IRAK4 Degradation (0.01 uM)” value is “B (>20-50% degradation)”, the “OCI-LY10 % IRAK4 Degradation (0.1 uM)” value is “A (>50% degradation)” and the “OCI-LY10 % IRAK4 Degradation (1 uM)” value is given as “A (>50% degradation)”.
`NC(=O)c1nn(-c2ccc(C(=O)NCC#CC#CCNc3cccc4c3C(=O)N(C3CCC(=O)NC3=O)C4=O)cc2)cc1NC(=O)c1coc(-c2ccnc(NCC(F)(F)F)c2)n1` (centres unmarked) [I-177, N-[3-carbamoyl-1-[4-[6-[[2-(2,6-dioxo-3-piperidyl)-1,3-dioxo-isoindolin-4-yl]amino]hexa-2,4-diynylcarbamoyl]phenyl]pyrazol-4-yl]-2-[2-(2,2,2-trifluoroethylamino)-4-pyridyl]oxazole-4-carboxamide]: the “OCI-LY10 % IRAK4 Degradation” value is recorded as “C (<20% degradation)”.
